Assay results: patent US10383861B2, “3-(1H-pyrrolo[2,3-C]pyridin-2-yl)-1H-pyrazolo[3,4-C]pyridines and therapeutic uses thereof” (Samumed, LLC, priority 2015, dated 2019)

Tests used:
Format in all cases: cell-based
IL-6 = IL-6 inhibition in LPS-stimulated THP-1 cells (HTRF); settings: Homo sapiens; for inhibition at 10 µM: THP-1, read-out: percent inhibition at 10 μM; for EC50: THP-1 cells, LPS 500 ng/mL, 22 hours, IL6 HTRF
Outline: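 THP-1 cells kept 24 h in 1% FBS medium, treated 2 h at 37 °C, then stimulated with 500 ng/mL LPS for another 22 h. IL-6 measured by HTRF as the 665/620 nm ratio; EC50 from a four-parameter fit normalized to DMSO controls.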

SW480 colon cancer cells = assay: Cell viability assay (CellTiter-Blue) in SW480 colon cancer cells; settings: Homo sapiens; for EC50: 96 h, SW480 cell viability, four days, CellTiter-Blue; for inhibition at 10 µM: SW480, read-out: percent inhibition at 10 μM
Outline: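 Fluorescence from resazurin reduced to resorufin by metabolically active cells was the read-out, taken after ~3 h with CellTiter-Blue.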

[1] = tested on: primary human mesenchymal stem cells (hMSCs); assay: Induction of chondrogenesis in hMSCs (nodule count, Rhodamine B/Nile Red); settings: 6 days; for Emax: relative to TGF-β3 (10 ng/mL) positive control, read-out: Max. Activity as % TGF-β3 activity; for EC50: concentration required to induce 50% levels of chondrogenesis vs TGF-β3, read-out: Conc (nM) of 50% TGF-β3 activity
Text: Representative compounds were screened using primary human mesenchymal stem cells (hMSCs) to determine their ability to induce chondrogenesis (process by which cartilage is developed).
Primary human mesenchymal stem cells (hMSCs) were purchased from Lonza (Walkersville, Md.) and expanded in Mesenchymal Stem Cell Growth Media (Lonza). Cells between passage 3 and 6 were used for the experiments.
To image chondrogenic nodules, the cells were fixed using 4% formaldehyde (Electron Microscopy Sciences), and stained with 2 μg/mL Rhodamine B (Sigma-Aldrich) and 20 μM Nile Red (Sigma-Aldrich) [Johnson K., et.al, A Stem Cell-Based Approach to Cartilage Repair, Science, (2012). […] Number of nodules in each well was normalized to the average of 3 DMSO treated wells on the same plate using Excel (Microsoft Inc.). The normalized averages (fold change over DMSO) of 3 replicate wells for each compound concentration were calculated. Due to solubility limitations of some of the compounds, curve fitting was incomplete leading to inaccurate EC50 determinations.
Using TGF-β3 as a positive control, the concentration of representative compounds required to induce 50% levels of chondrogenesis is reported. In addition, the maximum activity of each compound and the respective dose that each compound reached maximum chondrogenesis activity is reported.

Wnt activity = Wnt activity screening assay, Sp5-Luc reporter gene in SW480 cells; settings: Homo sapiens; for inhibition at 10 µM: SW480, read-out: percent inhibition at 10 μM; for EC50: Sp5-Luc reporter, SW480 cells, overnight incubation
Outline: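 SW480 cells stably transduced with lentiviral Sp5 promoter (eight TCF/LEF sites)-firefly luciferase, plated at 4,000 cells/well in 1% FBS medium and incubated overnight at 37° C. Luminescence read after BrightGlo addition, normalized to DMSO-only cells; EC50 from four-parameter variable-slope nonlinear regression.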

[2] = tested on: primary human fibroblasts derived from IPF patients (LL29 cells); assay: Inhibition of the fibrotic process: αSMA staining in TGF-β1 treated LL29 fibroblasts; settings: Fibroblast; for EC50: 96 h, LL29 cells, TGF-β1 20 ng/mL, 4 days, % αSMA positive cells; for inhibition at 10 µM: read-out: percent inhibition at 10 μM
Outline: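 IPF-patient-derived LL29 lung fibroblasts in F12 with 1% FBS, stimulated with TGF-β1 alongside compound; TGF-β1 plus DMSO wells served as controls. After 4 days, nuclei stained with 1 μM SYTOX green for 30 min at room temperature, alongside αSMA staining.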

EC50 (IL-6) [µM] | EC50 (SW480 colon cancer cells) [µM] | EC50 (Wnt activity) [µM] | EC50 [1] [nM] | SMILES | inhibition at 10 µM (IL-6) [%] | inhibition at 10 µM (SW480 colon cancer cells) [%] | Emax [1] [%] | inhibition at 10 µM (Wnt activity) [%] | EC50 [2] [µM] | inhibition at 10 µM [2] [%]
8.26 | 4.34 | 1.81 |  | CC(C)C(=O)Nc1cncc(-c2cc3c(-c4cc5c(-c6cccc(F)c6)cncc5[nH]4)n[nH]c3cn2)c1 [Compound 9, N-(5-(3-(4-(3-Fluorophenyl)-1H-pyrrolo[2,3-c]pyridin-2-yl)-1H-pyrazolo[3,4-c]pyridin-5-yl)pyridin-3-yl)isobutyramide] |  |  | 42 |  | 1.79 | 
> 10 | > 10 | > 10 | 30 | CN(C)Cc1cncc(-c2cc3c(-c4cc5c(-c6ccncc6)cncc5[nH]4)n[nH]c3cn2)c1 [Compound 125, N,N-Dimethyl-1-(5-(3-(4-(pyridin-4-yl)-1H-pyrrolo[2,3-c]pyridin-2-yl)-1H-pyrazolo[3,4-c]pyridin-5-yl)pyridin-3-yl)methanamine] | 0 | 5.3 | 52 | 18.7 | > 10 | 2.9
> 10 | > 10 | 1.34 | 100 | c1cncc(-c2cc3c(-c4cc5c(-c6cccnc6)cncc5[nH]4)n[nH]c3cn2)c1 [Compound 88, 5-(Pyridin-3-yl)-3-(4-(pyridin-3-yl)-1H-pyrrolo[2,3-c]pyridin-2-yl)-1H-pyrazolo[3,4-c]pyridine] | 36.6 | 37.4 | 76 |  | > 10 | 82.9

More lines, now with the values behind:

SMILES | EC50 (IL-6) [µM] | EC50 (SW480 colon cancer cells) [µM] | EC50 (Wnt activity) [µM] | EC50 [1] [nM] | inhibition at 10 µM (IL-6) [%] | inhibition at 10 µM (SW480 colon cancer cells) [%] | Emax [1] [%] | inhibition at 10 µM (Wnt activity) [%] | EC50 [2] [µM] | inhibition at 10 µM [2] [%]
CS(=O)(=O)NCc1cc(F)cc(-c2cncc3[nH]c(-c4n[nH]c5cnc(-c6cncc(NC(=O)C7CCC7)c6)cc45)cc23)c1 [Compound 497, N-(5-(3-(4-(3-Fluoro-5-(methylsulfonamidomethyl)phenyl)-1H-pyrrolo[2,3-c]pyridin-2-yl)-1H-pyrazolo[3,4-c]pyridin-5-yl)pyridin-3-yl)cyclobutanecarboxamide] | > 10 | > 10 | > 10 |  | 0 | 14.1 | 15 | 6.4 | > 10 | 27.8
CC(C)CC(=O)Nc1cncc(-c2cc3c(-c4cc5c(-c6cc(F)cc(CNS(C)(=O)=O)c6)cncc5[nH]4)n[nH]c3cn2)c1 [Compound 478, N-(5-(3-(4-(3-Fluoro-5-(methylsulfonamidomethyl)phenyl)-1H-pyrrolo[2,3-c]pyridin-2-yl)-1H-pyrazolo[3,4-c]pyridin-5-yl)pyridin-3-yl)-3-methylbutanamide] | > 10 | > 10 | > 10 |  | 18.9 | 4.1 | 24 | 18.8 | > 10 | 37.6
Fc1cccc(-c2cncc3[nH]c(-c4n[nH]c5cnc(-c6cncc(CN7CCCC7)c6)cc45)cc23)c1 [Compound 14, 3-(4-(3-Fluorophenyl)-1H-pyrrolo[2,3-c]pyridin-2-yl)-5-(5-(pyrrolidin-1-ylmethyl)pyridin-3-yl)-1H-pyrazolo[3,4-c]pyridine] | > 10 | 5.69 | 3.97 | 100 | 48.2 |  | 81 |  | 3.54 | 
